Source: patent US20220074923A1, “METHODS OF IDENTIFYING PARKIN-MEDIATED MITOPHAGY ACTIVATING AGENTS” (THE GOVERNING COUNCIL OF THE UNIVERSITY OF TORONTO, priority 2018, published 2022)

Experiments:
HEK293 GFP Parkin cells = assay: High throughput small molecule screen for Parkin recruitment to mitochondria (high content imaging); assay type: cell-based; conditions: 4 μM, 16 h, then CCCP 2 h; rank out of 480; low rank = activator of Parkin recruitment, high rank = inhibitor
Protocol: 10 uL of 0.1 mg/mL Poly-D-Lys solution was added to 384-well plates for 5 minutes, followed by a PBS wash. Plates were dried for at least 2 hours. 50 μL of 600 000 HEK293 GFP Parkin cell/mL of DMEM was dispensed into each well. After 24 hours incubation to allow the cells to adhere, 200 nL of small molecules (or DMSO in columns 1, 2, 23 and 24) were pinned. Following a 16-hour incubation, 200 nL of 5 mM CCCP were added to all wells except columns 1 and 2, into which 200 nL of DMSO was added. Following 2-hour incubation, cells were fixed with 4% paraformaldehyde (PFA) and stained with 50 μL of 1 μg/mL DAPI solution for 15 minutes. After the final PBS wash, plates were ready for high content microscopy.
Images were acquired on IN Cell Analyzer 6000 (GE Healthcare), equipped with sCMOS camera (2048×2048), and 20x/0.45 NA Plan Fluor objective (Nikon) in open aperture mode using 1×1 binning. Image analysis was performed using Columbus Image Analysis System (PerkinElmer). Nuclei were initially detected in DAPI channel, followed by whole cell segmentation in GFP channel. Using PhenoLOGIC machine learning plug-in, cells were split into 2 sub-populations: cells with even GFP-Parkin distribution and cells where GFP-Parkin was localized to mitochondria. The percentage of cells with mitochondrial GFP-Parkin was determined per well. The molecules were then rank ordered based on z-score, which is calculated using the formula: […]
where x is the percentage of cells with mitochondrial GFP-Parkin for a specific small molecule, μ is the average percentage of cells with mitochondrial Parkin in positive control columns 23 and 24, where cells are treated with CCCP only.
These cell lines were screened across 2 biological replicates with compounds from the kinase inhibitor (n=480) and Prestwick (n=1120) collections. The 3-day screening protocol consisted of (1) seeding cells, (2) pinning small molecules at 4 μM concentration and (3) inducing mitophagy with CCCP, followed by processing of plates for high content imaging. Following image acquisition, DAPI staining was used to segment cells within each image. Supervised machine learning was used to classify cells into two classes: (1) cells with cytosolic Parkin distribution and (2) those with Parkin localized to mitochondria. […] Compounds which increased the proportion of class 2 cells across 2 biological replicates, compared to the CCCP-only treated cells (FIG. 10), as indicated by their z-score (FIG. 11), were considered hits.

SH-SY5Y cells = assay: Cell viability by crystal violet staining; assay type: cell-based; conditions: 0.5 μM pre-treatment, 10 μM CCCP 24 hours
Protocol: A) SH-SY5Y cells were pre-treated with either DMSO or 0.5 μM SR3677 prior to addition of either DMSO or 10 μM CCCP for 24 hours. Following treatment, cells were washed, fixed with 4% paraformaldehyde and stained with crystal violet dye. B) The OD at 550 nm was measured to assess crystal violet staining.
To determine whether these findings could be translated into dopaminergic neurons, the study was continued in the dopaminergic neuroblastoma SH-SY5Y cell line. Parkin undergoes a similar CCCP-dependent subcellular transition from cytosol to mitochondria in these cells^12. First, whether the viability of these cells would be improved by SR3677 was investigated. Initially, experiments were conducted using crystal violet staining as an indicator of cell viability. […] Next, SH-SY5Y cells were differentiated into a more neuron-like population according to protocols previously described^10 and ATP levels were measured. […] Varying concentrations of SR3677 were co-administered alongside the PD-causing toxin paraquat.

[1] = tested on: differentiated SH-SY5Y cells; assay: Cell viability determination (ATP levels normalized to protein); assay type: cell-based; conditions: 24 hours
Protocol: SH-SY5Y cells were differentiated according to previously established protocol consisting of sequential treatment with retinoic acid followed by brain-derived neurotrophic factor^10. Cells were then seeded into white 96-well plates with white bottom and allowed to adhere overnight. Varying doses of SR3677 were combined with 500 μM paraquat and administered for 24 hours. Controls treated with 0.5 μM SR3677, equivalent volume DMSO and paraquat alone were also included. Following 24-hour incubation, cell media was aspirated and THE lysis buffer (50 mM Tris-HCl, 100 mM NaCl, 0.1 mM EDTA) containing protease inhibitor cocktail was added to each well. Half of the lysate volume was removed and aliquoted into a separate 96-well plate. ATP levels were measured in the opaque plate using the ATP determination (ThermoFisher A22066) assay kit and protein concentrations were measured using the Pierce BCA (ThermoFisher #23225) assay kit. ATP levels were normalized to protein concentration and then by the ratio for cells treated with paraquat alone in a control well on each plate.

TH-GAL4>UAS-mitoQC flies = assay: In vivo mitoQC assay in dopaminergic neurons; set-up: species or system Drosophila; conditions: SR3677 with sublethal paraquat dose (1 mM), 7 days, vs water
Protocol: Cells were treated with 50 μM chloroquine for 16 hours prior to addition of E64, leupeptin, SR3677 and CCCP in the indicated treatment group. For the in vivo mitoQC assays, 5 7-day old male TH-GAL4>UAS-mitoQC were placed into vials containing water (control), sublethal 1 mM paraquat, 1 mM SR3677 alone and in combination with paraquat for 7 days. Whole flies were then fixed overnight in 1% PFA and 0.1% Tx-100. Fly brains were then dissected and fixed with 4% PFA for 20 minutes. 3 10-minute PBS washes were performed in between each step. Fly brains were mounted in VectaShield™ mounting medium for imaging using the Zeiss LSM700 confocal fluorescence microscope with 40× 1.4 NA Oil Plan-APOCRAMAT objective and the appropriate lasers and filter. 0.8 μm z-stacks were acquired to capture dopaminergic neurons expressing the mitoQC transgene. Laser settings were kept constant within each trial. At least 2 fly brains were imaged for each treatment across 4 independent trials.
The mitoQC assay may also be performed in Drosophila to quantify mitophagy specifically in cell types of interest using the GAL4/UAS system. Briefly, the mitoQC transgene was expressed in dopaminergic neurons using the TH-GAL4 driver^41. Since CCCP cannot be administered without affecting the viability of the flies, 7-day old flies were fed the parkinsonian toxin, paraquat. […]

SMILES: CN(C)CCOc1cc(-c2cn[nH]c2)ccc1NC(=O)[C@@H]1COc2ccccc2O1 [SR3677]
- rank in the kinase inhibitor library screen (rank order by z-score) (HEK293 GFP Parkin cells): 71/480
- crystal violet staining (OD) (SH-SY5Y cells): increased crystal violet
- cell viability, compound alone ([1]; 0.5 μM): did not affect cell viability
- viability of cells challenged with paraquat ([1]; varying concentrations with 500 μM paraquat): improved the viability of cells challenged with paraquat in a dose-dependent manner
- percentage of red-only mitochondrial signal over the total mitochondrial signal (TH-GAL4>UAS-mitoQC flies): greater than flies whose food was supplemented with water
